Assay results reported in patent US3974268A, “Bone-seeking technetium-99m imidodiphosphonate complex” (priority 1975, dated 1976).
Like-named read-outs stand apart in the source and are kept apart here.

Tests used:
[1] = cited from earlier work
[2] = Acute toxicity (LD 50/30) by serial injection of graduated doses; format: in vivo; conditions: mice and rabbits
Experimental: A toxicological study was conducted in both mice and rabbits by serial injection of graduated doses and the acute toxicity of imidodiphosphonate (LD 50/30) was determined to be 45-50 mg imidodiphosphonic acid per kilogram body weight.

[3] = 2 hours, rabbits, derived from Subramanian et al references

Compound	99mTc/85Sr ratio calculated from specific concentrations, Average Bone [1, 3]	99mTc/85Sr ratio calculated from specific concentrations, Blood [1, 3]	99mTc/85Sr ratio calculated from specific concentrations, Femur [1, 3]	99mTc/85Sr ratio calculated from specific concentrations, Kidney [1, 3]	99mTc/85Sr ratio calculated from specific concentrations, Liver [1, 3]	99mTc/85Sr ratio calculated from specific concentrations, Marrow [1, 3]	99mTc/85Sr ratio calculated from specific concentrations, Muscle [1, 3]	99mTc/85Sr ratio calculated from specific concentrations, Pelvis [1, 3]	99mTc/85Sr ratio calculated from specific concentrations, Spine [1, 3]	99mTc/85Sr ratio calculated from specific concentrations, Tibia [1, 3]	further results
O=P(O)(O)OP(=O)(O)O [Pyro Phosphate]	–	–	–	–	–	–	–	–	–	–	99mTc/85Sr ratio calculated from specific concentrations, Average Bone ([1]; rabbit, in vivo): 0.812; 99mTc/85Sr ratio calculated from specific concentrations, Blood ([1]; rabbit, in vivo): 0.703; 99mTc/85Sr ratio calculated from specific concentrations, Femur ([1]; rabbit, in vivo): 0.710; 99mTc/85Sr ratio calculated from specific concentrations, Kidney ([1]; rabbit, in vivo): 2.81; 99mTc/85Sr ratio calculated from specific concentrations, Liver ([1]; rabbit, in vivo): 0.779; 99mTc/85Sr ratio calculated from specific concentrations, Marrow ([1]; rabbit, in vivo): 0.726; 99mTc/85Sr ratio calculated from specific concentrations, Muscle ([1]; rabbit, in vivo): 0.365; 99mTc/85Sr ratio calculated from specific concentrations, Pelvis ([1]; rabbit, in vivo): 0.918; 99mTc/85Sr ratio calculated from specific concentrations, Spine ([1]; rabbit, in vivo): 0.827; 99mTc/85Sr ratio calculated from specific concentrations, Tibia ([1]; rabbit, in vivo): 0.694
O=P(O)(O)CN(CCCCCCN(CP(=O)(O)O)CP(=O)(O)O)CP(=O)(O)O (99mTc complex, metal not drawn) [HMDTMP, Hexamethylene Diamino Tetra (Methylene Phosphonate)]	0.456	0.703	0.434	7.06	0.855	0.713	0.407	0.516	0.428	0.437	–
Poly Phosphate	0.87	1.48	0.826	9.46	2.61	2.95	0.623	1.01	0.82	0.66	–
Amino Ethylne Diphosphonate [AEDP]	0.648	0.416	0.641	3.71	0.766	0.852	0.135	0.693	0.618	0.641	–
O=P(O)(O)CN(CCN(CP(=O)(O)O)CP(=O)(O)O)CCN(CP(=O)(O)O)CP(=O)(O)O (99mTc complex, metal not drawn) [DTPMP, Diethylene Triamino Penta (Methylene Phosphonate)]	–	–	–	–	–	–	–	–	–	–	99mTc/85Sr ratio calculated from specific concentrations, Average Bone ([1]; rabbit, in vivo): 0.467; 99mTc/85Sr ratio calculated from specific concentrations, Blood ([1]; rabbit, in vivo): 0.461; 99mTc/85Sr ratio calculated from specific concentrations, Femur ([1]; rabbit, in vivo): 0.419; 99mTc/85Sr ratio calculated from specific concentrations, Kidney ([1]; rabbit, in vivo): 3.82; 99mTc/85Sr ratio calculated from specific concentrations, Liver ([1]; rabbit, in vivo): 0.544; 99mTc/85Sr ratio calculated from specific concentrations, Marrow ([1]; rabbit, in vivo): 0.547; 99mTc/85Sr ratio calculated from specific concentrations, Muscle ([1]; rabbit, in vivo): 0.221; 99mTc/85Sr ratio calculated from specific concentrations, Pelvis ([1]; rabbit, in vivo): 0.627; 99mTc/85Sr ratio calculated from specific concentrations, Spine ([1]; rabbit, in vivo): 0.415; 99mTc/85Sr ratio calculated from specific concentrations, Tibia ([1]; rabbit, in vivo): 0.384
Ethylene Hydroxy Diphosphonate [EHDP]	0.832	0.362	0.796	3.53	0.954	0.814	0.172	0.913	0.801	0.798	–
imidodiphosphonic acid [imidodiphosphonate]	–	–	–	–	–	–	–	–	–	–	acute toxicity (LD 50/30) [2]: 45-50 mg imidodiphosphonic acid per kilogram body weight
